Patent US9994558B2, “Multicyclic compounds and methods of using same” (Karyopharm Therapeutics Inc., priority 2013, dated 2018)
pIC50: −log10 of the molar value.

Assays:
Assay type in all cases: cell-based
Z138 cells = assay: MTT cell proliferation assay, Z138 cells; conditions: Homo sapiens, Z-138, incubation approximately 64-72 hours
Protocol: (§1) The MTT cell proliferation assay was used to study the cytotoxic properties of the compounds. The assay was performed according to the method described by Roche Molecular Biochemicals, with minor modifications. The assay is based on the cleavage of the tetrazolium salt, MTT, in the presence of an electron-coupling reagent. The water-insoluble formazan salt produced must be solubilized in an additional step. Cells grown in a 96-well tissue culture plate were incubated with the MTT solution for approximately 4 hours. After this incubation period, a water-insoluble formazan dye formed. After solubilization, the formazan dye was quantitated using a scanning multi-well spectrophotometer (ELISA reader). […] The cells were seeded at 5,000-10,000 cells in each well of 96-well plate in 100 μL of fresh culture medium and were allowed to attach overnight. The stock solutions of the compounds were diluted in 100 μL cell culture medium to obtain eight concentrations of each test compound, ranging from 1 nM to 30 μM. […] All optical densities were measured at 490 nm using a Vmax Kinetic Microplate Reader (Molecular Devices). In most cases, the assay was performed in duplicate and the results were presented as a mean percent inhibition to the negative control±SE. The following formula was used to calculate the percent of inhibition. Inhibition (%)=(1−(ODo/OD))×100.
(§2) The compounds were tested against MS751, Z138 and 3T3 cells. The MS751 cell line is derived from a metastasis to lymph node of human cervix from a patient diagnosed with squameous cell carcinoma of the cervix. The […] cell line is a mature B-cell acute lymphoblastic leukemia cell line derived from a patient with chronic lymphocytic leukemia. 3T3 cells are standard fibroblast cells; they were originally isolated from Swiss mouse embryo tissue.

MS751 cells = assay: MTT cell proliferation assay, MS751 cells; conditions: Homo sapiens, incubation approximately 64-72 hours
Protocol: as §1, §2

3T3 cells = assay: MTT cell proliferation assay, 3T3 cells; conditions: Mus musculus, NIH3T3; 3T3 fibroblast cells; incubation approximately 64-72 hours
Protocol: as §1, §2

SMILES	pIC50 (Z138 cells)	pIC50 (MS751 cells)	pIC50 (3T3 cells)
CC(=O)c1ccc(-c2ccc(OCCNC(=O)/C=C/c3cccnc3)c(Cl)c2)s1 [Compound 300, (E)-N-(2-(4-(5-acetylthiophen-2-yl)-2-chlorophenoxy)ethyl)-3-(pyridin-3-yl)acrylamide]	5.30 to 7.00	5.30 to 7.00	< 5.00
CC(O)c1ccc(-c2ccc(OCCNC(=O)/C=C/c3cccnc3)c(Cl)c2)s1 (stereo not drawn) [Compound 301, (E)-N-(2-(2-chloro-4-(5-(1-hydroxyethyl)thiophen-2-yl)phenoxy)ethyl)-3-(pyridin-3-yl) acrylamide]	5.30 to 7.00	> 7.00	5.30 to 7.00
CC(=O)c1ccc(-c2cccc(OCCNC(=O)/C=C/c3cccnc3)c2Cl)s1 [Compound 302, (E)-N-(2-(3-(5-acetylthiophen-2-yl)-2-chlorophenoxy)ethyl)-3-(pyridin-3-yl) acrylamide]	5.30 to 7.00	> 7.00	5.30 to 7.00
CC(=O)c1ccc(-c2ccc(Cl)c(OCCNC(=O)/C=C/c3cccnc3)c2)s1 [Compound 303, (E)-N-(2-(5-(5-acetylthiophen-2-yl)-2-chlorophenoxy)ethyl)-3-(pyridin-3-yl)acrylamide]	5.30 to 7.00	5.30 to 7.00	< 5.00
CC(=O)c1ccc(-c2ccc(OCCNC(=O)/C=C/c3cccnc3Cl)c(Cl)c2)s1 [Compound 304, (E)-N-(2-(4-(5-acetylthiophen-2-yl)-2-chlorophenoxy)ethyl)-3-(2-chloropyridin-3-yl) acrylamide]	< 5.00	5.00 to 5.30	< 5.00
CC(=O)c1ccc(-c2ccc(OCCNC(=O)/C=C/c3cccnc3C)c(Cl)c2)s1 [Compound 305, (E)-N-(2-(4-(5-acetylthiophen-2-yl)-2-chlorophenoxy)ethyl)-3-(2-methylpyridin-3-yl) acrylamide]	< 5.00	< 5.00	< 5.00
CC(=O)c1ccc(-c2ccc(OCCNC(=O)CCc3cccnc3)c(Cl)c2)s1 [Compound 306, N-(2-(4-(5-acetylthiophen-2-yl)-2-chlorophenoxy)ethyl)-3-(pyridin-3-yl)propanamide]	< 5.00	5.00 to 5.30	< 5.00
CC(=O)c1ccc(-c2ccc(OCCNC(=O)/C=C/c3c(C)noc3C)c(Cl)c2)s1 [Compound 307, (E)-N-(2-(4-(5-acetylthiophen-2-yl)-2-chlorophenoxy)ethyl)-3-(3,5-dimethylisoxazol-4-yl)acrylamide]	< 5.00	< 5.00	< 5.00
CC(=O)c1ccc(-c2ccc(OCCNC(=O)/C=C/c3ccc(N)nc3)c(Cl)c2)s1 [Compound 308, (E)-N-(2-(4-(5-acetylthiophen-2-yl)-2-chlorophenoxy)ethyl)-3-(6-aminopyridin-3-yl) acrylamide]	5.30 to 7.00	5.30 to 7.00	< 5.00
CC(=O)c1ccc(-c2ccc(OCCNC(=O)C#Cc3cccnc3)c(Cl)c2)s1 [Compound 309, N-(2-(4-(5-acetylthiophen-2-yl)-2-chlorophenoxy)ethyl)-3-(pyridin-3-yl)propiolamide]	< 5.00	< 5.00	< 5.00
CC(=O)c1ccc(-c2ccc(OCCNC(=O)/C=C/c3cccnn3)c(Cl)c2)s1 [Compound 310, (E)-N-(2-(4-(5-acetylthiophen-2-yl)-2-chlorophenoxy)ethyl)-3-(pyridazin-3-yl)acrylamide]	< 5.00	< 5.00	< 5.00
CC(=O)c1ccc(-c2ccc(OCCN(C)C(=O)/C=C/c3cccnc3)c(Cl)c2)s1 [Compound 311, (E)-N-(2-(4-(5-acetylthiophen-2-yl)-2-chlorophenoxy)ethyl)-N-methyl-3-(pyridin-3-yl)acrylamide]	5.30 to 7.00	5.30 to 7.00	5.30 to 7.00
CC(=O)c1ccc(-c2ccccc2OCCNC(=O)/C=C/c2cccnc2)s1 [Compound 312, (E)-N-(2-(2-(5-acetylthiophen-2-yl)phenoxy)ethyl)-3-(pyridin-3-yl)acrylamide]	5.30 to 7.00	5.30 to 7.00	5.30 to 7.00
